# Patent publication US8399452B2, “Dibenzo[b,f][1,4]oxazepin-11-yl-N-hydroxybenzamides as HDAC inhibitors” (Methylgene Inc., priority 2006, dated 2013)
# Target: histone deacetylase (HDAC Enzyme)
# Experiment: Inhibition of Histone Deacetylase Enzymatic Activity (Boc-Lys(Ac)-AMC, Fluor-de-Lys developer)
# Format: biochemical
# Details: Table 9; read-out: HDAC Inhibition (IC50 μM) HDAC Enzyme
# Method: The following protocol is used to assay the compounds of the invention.
# The mixture is pre-incubated for 5 minutes at room temperature. The reaction is started by bringing the temperature to 37° C. and adding 16 μl substrate. Total reaction volume is 50 μl.
# In the Tables 8, 9 and 10, A≦[…]<B≦0.1 μM; 0.1 μM<C≦1 μM; and 1 μM<D≦10 μM.
row,IC50 [µM],SMILES
1,< 0.05,"Cc1ccc(N2C[C@H]3C[C@@H]2CN3c2ncc(C(=O)NO)cn2)cc1 [N-hydroxy-2-((1R,4R)-5-p-tolyl-2,5-diazabicyclo[2.2.1]heptan-2-yl)pyrimidine-5-carboxamide]"
2,0.1 to 1,"O=C(NO)c1cnc(N2C[C@@H]3C[C@H]2CN3c2ccccc2C(F)(F)F)nc1 [N-hydroxy-2-((1S,4S)-5-(2-(trifluoromethyl)phenyl)-2,5-diazabicyclo[2.2.1]heptan-2-yl)pyrimidine-5-carboxamide]"
3,< 0.05,"O=C(NO)c1cnc(N2C[C@@H]3C[C@H]2CN3c2cc(C(F)(F)F)nc3ccccc23)nc1 [N-hydroxy-2-((1S,4S)-5-(2-(trifluoromethyl)quinolin-4-yl)-2,5-diazabicyclo[2.2.1]heptan-2-yl)pyrimidine-5-carboxamide]"
4,< 0.05,"O=C(NO)c1cnc(N2C[C@@H]3C[C@H]2CN3c2cccc(OC(F)(F)F)c2)nc1 [N-hydroxy-2-((1S,4S)-5-(3-(trifluoromethoxy)phenyl)-2,5-diazabicyclo[2.2.1]heptan-2-yl)pyrimidine-5-carboxamide]"
5,0.05 to 0.1,"O=C(NO)c1cnc(N2C[C@@H]3C[C@H]2CN3C(=O)c2cccc(C(F)(F)F)c2)nc1 [N-hydroxy-2-((1S,4S)-5-(3-(trifluoromethyl)benzoyl)-2,5-diazabicyclo[2.2.1]heptan-2-yl)pyrimidine-5-carboxamide]"
6,< 0.05,"O=C(NO)c1cnc(N2C[C@@H]3C[C@H]2CN3c2cccc(C(F)(F)F)c2)nc1 [N-hydroxy-2-((1S,4S)-5-(3-(trifluoromethyl)phenyl)-2,5-diazabicyclo[2.2.1]heptan-2-yl)pyrimidine-5-carboxamide]"
7,< 0.05,"O=C(NO)c1cnc(N2C[C@@H]3C[C@H]2CN3c2cccc(C(F)(F)F)c2)s1 [N-hydroxy-2-((1S,4S)-5-(3-(trifluoromethyl)phenyl)-2,5-diazabicyclo[2.2.1]heptan-2-yl)thiazole-5-carboxamide]"
8,< 0.05,"O=C(NO)c1cnc(N2C[C@@H]3C[C@H]2CN3c2cccc(SC(F)(F)F)c2)nc1 [N-hydroxy-2-((1S,4S)-5-(3-(trifluoromethylthio)phenyl)-2,5-diazabicyclo[2.2.1]heptan-2-yl)pyrimidine-5-carboxamide]"
9,< 0.05,"COc1cccc(N2C[C@@H]3C[C@H]2CN3c2ncc(C(=O)NO)cn2)c1 [N-hydroxy-2-((1S,4S)-5-(3-methoxyphenyl)-2,5-diazabicyclo[2.2.1]heptan-2-yl)pyrimidine-5-carboxamide]"
10,< 0.05,"O=C(NO)c1cnc(N2C[C@@H]3C[C@H]2CN3c2ccc(C(F)(F)F)cc2)nc1 [N-hydroxy-2-((1S,4S)-5-(4-(trifluoromethyl)phenyl)-2,5-diazabicyclo[2.2.1]heptan-2-yl)pyrimidine-5-carboxamide]"
11,< 0.05,"O=C(NO)c1cnc(N2C[C@@H]3C[C@H]2CN3c2cc(C(F)(F)F)ccn2)nc1 [N-hydroxy-2-((1S,4S)-5-(4-(trifluoromethyl)pyridin-2-yl)-2,5-diazabicyclo[2.2.1]heptan-2-yl)pyrimidine-5-carboxamide]"
12,< 0.05,"O=C(NO)c1cnc(N2C[C@@H]3C[C@H]2CN3c2nccc(C(F)(F)F)n2)nc1 [N-hydroxy-2-((1S,4S)-5-(4-(trifluoromethyl)pyrimidin-2-yl)-2,5-diazabicyclo[2.2.1]heptan-2-yl)pyrimidine-5-carboxamide]"
13,< 0.05,"O=C(NO)c1cnc(N2C[C@@H]3C[C@H]2CN3c2cncc(C(F)(F)F)c2)nc1 [N-hydroxy-2-((1S,4S)-5-(5-(trifluoromethyl)pyridin-3-yl)-2,5-diazabicyclo[2.2.1]heptan-2-yl)pyrimidine-5-carboxamide]"
14,< 0.05,"O=C(NO)c1cnc(N2C[C@@H]3C[C@H]2CN3c2cccc(C(F)(F)F)n2)nc1 [N-hydroxy-2-((1S,4S)-5-(6-(trifluoromethyl)pyridin-2-yl)-2,5-diazabicyclo[2.2.1]heptan-2-yl)pyrimidine-5-carboxamide]"
15,0.05 to 0.1,"O=C(NO)c1cnc(N2C[C@@H]3C[C@H]2CN3C(=O)N2CCCC2)nc1 [N-hydroxy-2-((1S,4S)-5-(pyrrolidine-1-carbonyl)-2,5-diazabicyclo[2.2.1]heptan-2-yl)pyrimidine-5-carboxamide]"
16,< 0.05,"Cc1cccc(N2C[C@@H]3C[C@H]2CN3c2ncc(C(=O)NO)cn2)c1 [N-hydroxy-2-((1S,4S)-5-m-tolyl-2,5-diazabicyclo[2.2.1]heptan-2-yl)pyrimidine-5-carboxamide]"
17,0.05 to 0.1,"Cc1ccccc1N1C[C@@H]2C[C@H]1CN2c1ncc(C(=O)NO)cn1 [N-hydroxy-2-((1S,4S)-5-o-tolyl-2,5-diazabicyclo[2.2.1]heptan-2-yl)pyrimidine-5-carboxamide]"
18,< 0.05,"Cc1ccc(N2C[C@@H]3C[C@H]2CN3c2ncc(C(=O)NO)cn2)cc1 [N-hydroxy-2-((1S,4S)-5-p-tolyl-2,5-diazabicyclo[2.2.1]heptan-2-yl)pyrimidine-5-carboxamide]"
19,0.05 to 0.1,"O=C(NO)c1cnc(N2C[C@@H]3C[C@H]2CN3c2ccccc2)nc1 [N-hydroxy-2-((1S,4S)-5-phenyl-2,5-diazabicyclo[2.2.1]heptan-2-yl)pyrimidine-5-carboxamide]"
20,0.1 to 1,"COc1cccc(N2CC3CC2CN3c2ccc(C(=O)NO)cc2)c1 (centres unmarked) [N-hydroxy-4-(5-(3-methoxyphenyl)-2,5-diazabicyclo[2.2.1]heptan-2-yl)benzamide]"
21,0.1 to 1,"Cc1cccc(N2CC3CC2CN3c2ccc(C(=O)NO)cc2)c1 (centres unmarked) [N-hydroxy-4-(5-m-tolyl-2,5-diazabicyclo[2.2.1]heptan-2-yl)benzamide]"
22,1 to 10,"O=C(NO)c1ccc(N2C[C@H]3C[C@@H]2CN3c2cc(C(F)(F)F)ccn2)cc1 [N-hydroxy-4-((1R,4R)-5-(4-(trifluoromethyl)pyridin-2-yl)-2,5-diazabicyclo[2.2.1]heptan-2-yl)benzamide]"
23,0.1 to 1,"Cc1cccc(N2C[C@H]3C[C@@H]2CN3c2ccc(C(=O)NO)cc2)c1 [N-hydroxy-4-((1R,4R)-5-m-tolyl-2,5-diazabicyclo[2.2.1]heptan-2-yl)benzamide]"
24,0.1 to 1,"O=C(NO)c1ccc(N2C[C@@H]3C[C@H]2CN3c2cccc(C(F)(F)F)c2)cc1 [N-hydroxy-4-((1S,4S)-5-(3-(trifluoromethyl)phenyl)-2,5-diazabicyclo[2.2.1]heptan-2-yl)benzamide]"
25,0.1 to 1,"O=C(NO)c1ccc(N2C[C@@H]3C[C@H]2CN3c2cc(C(F)(F)F)ccn2)cc1 [N-hydroxy-4-((1S,4S)-5-(4-(trifluoromethyl)pyridin-2-yl)-2,5-diazabicyclo[2.2.1]heptan-2-yl)benzamide]"
26,0.1 to 1,"Cc1ccc(N2C[C@@H]3C[C@H]2CN3c2ccc(C(=O)NO)cc2)cc1 [N-hydroxy-4-((1S,4S)-5-p-tolyl-2,5-diazabicyclo[2.2.1]heptan-2-yl)benzamide]"
27,0.1 to 1,"O=C(NO)c1cnc(N2C[C@@H]3C[C@H]2CN3c2cccc(C(F)(F)F)c2)cn1 [N-hydroxy-5-((1S,4S)-5-(3-(trifluoromethyl)phenyl)-2,5-diazabicyclo[2.2.1]heptan-2-yl)pyrazine-2-carboxamide]"
28,< 0.05,"Cc1ccc(N2CC3CC2CN3c2ccc(C(=O)NO)cn2)cc1 (centres unmarked) [N-hydroxy-6-(5-p-tolyl-2,5-diazabicyclo[2.2.1]heptan-2-yl)nicotinamide]"
29,0.1 to 1,"O=C(NO)c1ccc(N2C[C@@H]3C[C@H]2CN3c2cccc(C(F)(F)F)c2)nn1 [N-hydroxy-6-((1S,4S)-5-(3-(trifluoromethyl)phenyl)-2,5-diazabicyclo[2.2.1]heptan-2-yl)pyridazine-3-carboxamide]"

# Same assay, conditions: Table 10; read-out: HDAC Inhibition (IC50 μM) HDAC Enzyme
row,IC50 [µM],SMILES
1,0.1 to 1,"O=C(NO)c1cnc(N2C[C@H]3C[C@@]3(c3ccccc3)C2)nc1 [N-hydroxy-2-((1R,5S)-1-phenyl-3-azabicyclo[3.1.0]hexan-3-yl)pyrimidine-5-carboxamide]"
2,1 to 10,"CN1CCc2[nH]c3ccc(C(=O)NO)cc3c2C1 [N-hydroxy-2-methyl-2,3,4,5-tetrahydro-1H-pyrido[4,3-b]indole-8-carboxamide]"
3,0.1 to 1,"O=C(CCc1ccc(CN2C(=O)c3ccccc3Oc3ccccc32)cc1)NO [N-hydroxy-3-(4-((11-oxodibenzo[b,f][1,4]oxazepin-10(11H)-yl)methyl)phenyl)propanamide]"
4,< 0.05,"O=C(NO)c1ccc(C#CCN2C(=O)c3ccccc3Oc3ccccc32)cc1 [N-hydroxy-4-(3-(11-oxodibenzo[b,f][1,4]oxazepin-10(11H)-yl)prop-1-ynyl)benzamide]"
5,0.05 to 0.1,"O=C(NO)c1ccc(CCCN2C(=O)c3ccccc3Oc3ccccc32)cc1 [N-hydroxy-4-(3-(11-oxodibenzo[b,f][1,4]oxazepin-10(11H)-yl)propyl)benzamide]"
6,0.1 to 1,"O=C(NO)c1ccc(N2C(=O)c3ccccc3Oc3ccccc32)cc1 [N-hydroxy-4-(11-oxodibenzo[b,f][1,4]oxazepin-10(11H)-yl)benzamide]"
7,0.1 to 1,O=C(NO)c1ccc(Cn2c(-c3ccccc3)cc3ccccc32)cc1 [N-hydroxy-4-((2-phenyl-1H-indol-1-yl)methyl)benzamide]
8,0.1 to 1,"O=C(NO)c1ccc(CN2C(=O)c3ccccc3CCc3ccccc32)cc1 [N-hydroxy-4-((6-oxo-11,12-dihydrodibenzo[b,f]azocin-5(6H)-yl)methyl)benzamide]"
9,< 0.05,O=C(NO)c1ccc(Cn2c(=O)c3ccccc3c3ccccc32)cc1 [N-hydroxy-4-((6-oxophenanthridin-5(6H)-yl)methyl)benzamide]
10,< 0.05,"O=C(NO)c1ccc(CN2C(=O)c3ccccc3Oc3ccccc32)cc1 [N-hydroxy-4-((11-oxodibenzo[b,f][1,4]oxazepin-10(11H)-yl)methyl)benzamide]"
11,< 0.05,"O=C(CCCCCN1C(=O)c2ccccc2Oc2ccccc21)NO [N-hydroxy-6-(11-oxodibenzo[b,f][1,4]oxazepin-10(11H)-yl)hexanamide]"

# Same assay, conditions: read-out: HDAC Inhibtion (IC50 μM) HDAC Enzyme
row,IC50 [µM],SMILES
1,0.1 to 1,"CN1c2ccccc2Oc2ccccc2C1c1ccc(C(=O)NO)cc1 (centres unmarked) [N-hydroxy-4-(10-methyl-10,11-dihydrodibenzo[b,f][1,4]oxazepin-11-yl)benzamide]"
